Legend:
[1] = test system: barnyardgrass; test: Test C postemergence; type: in vivo, Echinochloa crus-galli
Source text: (§1) Seeds of plant species selected from blackgrass (Alopecurus myosuroides), ryegrass, Italian (Italian ryegrass, Lolium multiflorum), wheat (winter wheat, Triticum aestivum), galium (catchweed bedstraw, Galium aparine), corn (Zea mays), crabgrass, large (large crabgrass, Digitaria sanguinalis), foxtail, giant, (giant foxtail, Setaria faberii), johnsongrass (Sorghum halepense), lambsquarters (Chenopodium album), morningglory (Ipomoea coccinea), nutsedge, yellow (yellow nutsedge, Cyperus esculentus), pigweed (Amaranthus retroflexus), ragweed (common ragweed, Ambrosia elatior), soybean (Glycine max), barnyardgrass (Echinochloa crus-galli), oilseed rape (Brassica napus), waterhemp (common waterhemp, Amaranthus rudis), and velvetleaf (Abutilon theophrasti) were planted into a blend of loam soil and sand and treated preemergence with test chemicals formulated in a non-phytotoxic solvent mixture which included a surfactant. At the same time, plants selected from these crop and weed species and also chickweed (common chickweed, Stellaria media), oat, wild (wild oat, Avena fatua), and kochia (Kochia scoparia), were planted in pots containing Sunshine Redi-Earth® planting medium comprising spaghnum peat moss, vermiculite, starter nutrients and dolomitic limestone and treated with postemergence applications of test chemicals formulated in the same manner. Plants ranged in height from 2 to 18 cm (1- to 4-leaf stage) for postemergence treatments. […] A dash (-) response means no test result.

[2] = test system: ryegrass, Italian; test: Test C postemergence; type: in vivo, Lolium multiflorum
Source text: as §1

[3] = test system: blackgrass; test: Test C postemergence; type: in vivo, Alopecurus myosuroides
Source text: as §1

[4] = test system: foxtail, giant; test: Test A postemergence; type: in vivo, Setaria faberii; settings: 0 to 100 scale (0 no effect, 100 complete control), approx. 10 d
Procedure, shortened: (§2)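 Plant seeds in loam soil blended with sand, then apply test chemical preemergence as a directed soil spray; in parallel, spray potted seedlings (one- to two-leaf, 2 to 10 cm) postemergence. Both treatments use a non-phytotoxic solvent mixture with surfactant.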

[5] = test system: sedge, umbrella; test: Test B flooded paddy test; type: in vivo, Cyperus difformis; settings: applied to paddy water at 2-leaf stage, visual rating after 13 to 15 d, scale 0 (no effect) to 100 (complete control)
Procedure, shortened: (§3)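 Pots were flooded to 3 cm above the soil at treatment, and compounds were applied directly into the paddy water. That depth was held throughout. After 13 to 15 d in a greenhouse, plants were rated visually against untreated controls.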

[6] = test system: ducksalad; test: Test B flooded paddy test; type: in vivo, Heteranthera limosa; settings: applied to paddy water at 2-leaf stage, visual rating after 13 to 15 d, scale 0 (no effect) to 100 (complete control)
Procedure, shortened: as §3

[7] = test system: wheat; test: Test A postemergence; type: in vivo, Triticum aestivum; settings: 0 to 100 scale (0 no effect, 100 complete control), approx. 10 d
Procedure, shortened: as §2

[8] = test system: barnyardgrass; test: Test A preemergence; type: in vivo, Echinochloa crus-galli; settings: 0 to 100 scale (0 no effect, 100 complete control)
Procedure, shortened: as §2

[9] = test system: corn; test: Test C postemergence; type: in vivo, Zea mays
Source text: as §1

[10] = test system: waterhemp; test: Test C postemergence; type: in vivo, Amaranthus rudis
Source text: as §1

[11] = test system: galium; test: Test C postemergence; type: in vivo, Galium aparine
Source text: as §1

[12] = test system: soybean; test: Test C postemergence; type: in vivo, Glycine max
Source text: as §1

[13] = test system: pigweed; test: Test A preemergence; type: in vivo, Amaranthus retroflexus; settings: 0 to 100 scale (0 no effect, 100 complete control)
Procedure, shortened: as §2

SMILES | Plant response rating (scale of 0 to 100 where 0 is no effect and 100 is complete control) ([1]; 31 g ai/ha) | Plant response rating (scale of 0 to 100 where 0 is no effect and 100 is complete control) ([1]; 62 g ai/ha) | Plant response rating (scale of 0 to 100 where 0 is no effect and 100 is complete control) ([1]; 125 g ai/ha) | Plant response rating (scale of 0 to 100 where 0 is no effect and 100 is complete control) ([2]; 31 g ai/ha) | Plant response rating (scale of 0 to 100 where 0 is no effect and 100 is complete control) ([2]; 62 g ai/ha) | Plant response rating (scale of 0 to 100 where 0 is no effect and 100 is complete control) ([2]; 125 g ai/ha) | Plant response rating (scale of 0 to 100 where 0 is no effect and 100 is complete control) ([3]; 31 g ai/ha) | Plant response rating (scale of 0 to 100 where 0 is no effect and 100 is complete control) ([3]; 62 g ai/ha) | Plant response rating (scale of 0 to 100 where 0 is no effect and 100 is complete control) ([3]; 125 g ai/ha) | Plant response rating (scale of 0 to 100 where 0 is no effect and 100 is complete control) ([9]; 31 g ai/ha) | Plant response rating (scale of 0 to 100 where 0 is no effect and 100 is complete control) ([9]; 62 g ai/ha) | Plant response rating (scale of 0 to 100 where 0 is no effect and 100 is complete control) ([9]; 125 g ai/ha) | Plant response rating (scale of 0 to 100 where 0 is no effect and 100 is complete control) ([10]; 31 g ai/ha) | Plant response rating (scale of 0 to 100 where 0 is no effect and 100 is complete control) ([10]; 62 g ai/ha) | Plant response rating (scale of 0 to 100 where 0 is no effect and 100 is complete control) ([10]; 125 g ai/ha) | Plant response rating (scale of 0 to 100 where 0 is no effect and 100 is complete control) ([11]; 31 g ai/ha) | Plant response rating (scale of 0 to 100 where 0 is no effect and 100 is complete control) ([11]; 62 g ai/ha) | Plant response rating (scale of 0 to 100 where 0 is no effect and 100 is complete control) ([11]; 125 g ai/ha) | Plant response rating (scale of 0 to 100 where 0 is no effect and 100 is complete control) ([12]; 31 g ai/ha) | Plant response rating (scale of 0 to 100 where 0 is no effect and 100 is complete control) ([12]; 62 g ai/ha) | also measured
COc1nc(-c2ccc(F)cc2)nn1Cc1ccnc(C(F)(F)F)c1 [Compound 9, 4-[[3-(4-fluorophenyl)-5-methoxy-1H-1,2,4-triazol-1-yl]methyl]-2-(trifluoromethyl)pyridine] | 10 | 10 | 20 | 5 | 5 | 5 | 5 | 5 | 15 | 20 | 35 | 20 | 65 | 80 | 85 | 70 | 80 | 65 | 25 | 30 | Plant response rating (scale of 0 to 100 where 0 is no effect and 100 is complete control) ([1]; 16 g ai/ha): 5; Plant response rating (scale of 0 to 100 where 0 is no effect and 100 is complete control) ([2]; 16 g ai/ha): 0; Plant response rating (scale of 0 to 100 where 0 is no effect and 100 is complete control) ([3]; 16 g ai/ha): 5; pest or weed control at 125 g/ha ([4]; Setaria faberi, post-emergence, 240 h, 125 g ai/ha, read-out: Plant response rating, Foxtail, Giant): 80%; pest or weed control at 500 g/ha ([4]; Setaria faberi, post-emergence, 240 h, 500 g ai/ha, read-out: Plant response rating, Foxtail, Giant): 100%; pest or weed control at 125 g/ha ([5]; Cyperus difformis, 360 h, 125 g ai/ha, read-out: Plant response rating, Sedge, Umbrella, Flood): 80%; pest or weed control at 125 g/ha ([6]; Heteranthera limosa, 360 h, 125 g ai/ha, read-out: Plant response rating, Ducksalad, Flood): 20%; plant injury at 125 g/ha ([7]; Triticum aestivum, post-emergence, 240 h, 125 g ai/ha, read-out: Plant response rating, Wheat): 10%; plant injury at 500 g/ha ([7]; Triticum aestivum, post-emergence, 240 h, 500 g ai/ha, read-out: Plant response rating, Wheat): 10%; pest or weed control at 125 g/ha ([8]; Echinochloa crus-galli, pre-emergence, 240 h, 125 g ai/ha, read-out: Plant response rating, Barnyardgrass): 80%; pest or weed control at 500 g/ha ([8]; Echinochloa crus-galli, pre-emergence, 240 h, 500 g ai/ha, approx. 10 d, read-out: Plant response rating, Barnyardgrass): 100%; Plant response rating (scale of 0 to 100 where 0 is no effect and 100 is complete control) ([9]; 16 g ai/ha): 10; Plant response rating (scale of 0 to 100 where 0 is no effect and 100 is complete control) ([10]; 16 g ai/ha): 70; Plant response rating (scale of 0 to 100 where 0 is no effect and 100 is complete control) ([11]; 16 g ai/ha): 50; Plant response rating (scale of 0 to 100 where 0 is no effect and 100 is complete control) ([12]; 16 g ai/ha): 15; Plant response rating (scale of 0 to 100 where 0 is no effect and 100 is complete control) ([12]; 125 g ai/ha): 30; pest or weed control at 125 g/ha ([13]; Amaranthus retroflexus, pre-emergence, 240 h, 125 g ai/ha, read-out: Plant response rating, Pigweed): 100%; pest or weed control at 500 g/ha ([13]; Amaranthus retroflexus, pre-emergence, 240 h, 500 g ai/ha, approx. 10 d, read-out: Plant response rating, Pigweed): 100%
COc1nc(-c2ccc(C(F)(F)F)cc2)nn1Cc1ccnc(C(F)(F)F)c1 [Compound 25] | 20 | 25 | 35 | 5 | 5 | 10 | 5 | 10 | 30 | 20 | 20 | 25 | 95 | 95 | 98 | 80 | 90 | 90 | 45 | 70 | Plant response rating (scale of 0 to 100 where 0 is no effect and 100 is complete control) ([1]; 250 g ai/ha): 35; Plant response rating (scale of 0 to 100 where 0 is no effect and 100 is complete control) ([2]; 250 g ai/ha): 30; Plant response rating (scale of 0 to 100 where 0 is no effect and 100 is complete control) ([3]; 250 g ai/ha): 60; Plant response rating, Foxtail, Giant ([4]; 31 g ai/ha): 50; Plant response rating, Foxtail, Giant ([4]; 125 g ai/ha): 90; Plant response rating, Sedge, Umbrella, Flood ([5]; 250 g ai/ha): 95; Plant response rating, Ducksalad, Flood ([6]; 250 g ai/ha): 20; Plant response rating, Wheat ([7]; 31 g ai/ha): 10; Plant response rating, Wheat ([7]; 125 g ai/ha): 20; Plant response rating, Barnyardgrass ([8]; 31 g ai/ha): 10; Plant response rating, Barnyardgrass ([8]; 125 g ai/ha): 70; Plant response rating (scale of 0 to 100 where 0 is no effect and 100 is complete control) ([9]; 250 g ai/ha): 25; Plant response rating (scale of 0 to 100 where 0 is no effect and 100 is complete control) ([10]; 250 g ai/ha): 95; Plant response rating (scale of 0 to 100 where 0 is no effect and 100 is complete control) ([11]; 250 g ai/ha): 90; Plant response rating (scale of 0 to 100 where 0 is no effect and 100 is complete control) ([12]; 125 g ai/ha): 50; Plant response rating (scale of 0 to 100 where 0 is no effect and 100 is complete control) ([12]; 250 g ai/ha): 65; Plant response rating, Pigweed ([13]; 31 g ai/ha): 90; Plant response rating, Pigweed ([13]; 125 g ai/ha): 100

— US10681909B2, “Herbicidal triazoles” (FMC Corporation, priority 2014, dated 2020)
